Where two headings read alike, the source gives them in different places.
Key:
human 5-HT1A receptors = target: T1, human 5-HT1A receptors (Homo sapiens, UniProt P08908); assay: [3H] 8-OHDPAT displacement, 5-HT1A receptor affinity; format: binding
T1 construct: expressed in transfected cells; host or cells: CHO cells
T1 sequence (P08908 1-422): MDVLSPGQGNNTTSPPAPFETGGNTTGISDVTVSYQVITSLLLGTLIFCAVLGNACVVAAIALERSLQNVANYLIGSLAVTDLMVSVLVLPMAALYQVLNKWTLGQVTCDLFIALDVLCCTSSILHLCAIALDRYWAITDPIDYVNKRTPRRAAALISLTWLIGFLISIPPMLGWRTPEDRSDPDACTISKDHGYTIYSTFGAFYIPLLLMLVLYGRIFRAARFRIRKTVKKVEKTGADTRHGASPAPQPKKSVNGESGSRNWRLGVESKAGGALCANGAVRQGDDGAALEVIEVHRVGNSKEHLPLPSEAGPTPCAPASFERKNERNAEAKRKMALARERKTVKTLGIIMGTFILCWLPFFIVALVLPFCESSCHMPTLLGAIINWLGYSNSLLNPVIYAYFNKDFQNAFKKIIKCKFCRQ
Text: High affinity for the serotonin 5-HT1A receptor was established by testing the claimed compound's ability to displace [^3H] 8-OHDPAT (dipropylamino-tetralin) from the 5-HT1A serotonin receptor following a modification of the procedure of Hall et al., J. Neurochem. 44, 1685 (1985) which utilizes CHO cells stably transfected with human 5-HT1A receptors.

serotonin transporter = target: T2, serotonin transporter (Rattus norvegicus, UniProt P31652); assay: 3H-paroxetine displacement, serotonin transporter affinity; format: binding
T2 construct: displace ^3H-paroxetine from male rat frontal cortical membranes; from tissue; host or cells: male rat frontal cortex membranes
T2 sequence (P31652 whole entry): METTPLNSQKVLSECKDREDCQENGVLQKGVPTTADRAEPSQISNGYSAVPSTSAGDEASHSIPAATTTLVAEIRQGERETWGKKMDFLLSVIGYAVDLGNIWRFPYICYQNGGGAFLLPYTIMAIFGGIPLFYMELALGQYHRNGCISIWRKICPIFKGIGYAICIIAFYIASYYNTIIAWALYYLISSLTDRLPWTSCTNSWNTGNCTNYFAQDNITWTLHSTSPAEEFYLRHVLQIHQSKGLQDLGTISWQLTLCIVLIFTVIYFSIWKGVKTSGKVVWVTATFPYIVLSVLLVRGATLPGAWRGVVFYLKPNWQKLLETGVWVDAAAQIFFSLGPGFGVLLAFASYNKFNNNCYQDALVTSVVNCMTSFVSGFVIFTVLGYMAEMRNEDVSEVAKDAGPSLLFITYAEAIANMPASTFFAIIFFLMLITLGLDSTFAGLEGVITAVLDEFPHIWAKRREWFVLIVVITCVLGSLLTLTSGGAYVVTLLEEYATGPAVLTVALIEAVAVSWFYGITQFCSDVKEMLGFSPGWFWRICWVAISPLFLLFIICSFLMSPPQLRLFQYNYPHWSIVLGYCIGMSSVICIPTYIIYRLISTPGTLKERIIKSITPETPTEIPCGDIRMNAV

[1] = target: T3, cloned human 5-HT1A receptors (Homo sapiens, UniProt P08908); assay: 35S-GTPγS binding assay, 5-HT1A antagonist activity; format: biochemical; details: reversal of the effects of standard agonist 8-OH DPAT; for IC50: read-out: 5-HT1A Function IC50
T3 construct: expressed in transfected cells
T3 sequence (P08908 1-422): T1 sequence (P08908 1-422)
Procedure: Antagonist activity at 5-HT1A receptors was established by using a ^35S-GTPγS binding assay similar to that used by Lazareno and Birdsall (Br. J. Pharmacol. 109: 1120, 1993), in which the test compound's ability to affect the binding of ^35S-GTPγS to membranes containing cloned human 5-HT1A receptors was determined. Agonists produce an increase in binding whereas antagonists produce no increase but rather reverse the effects of the standard agonist 8-OH DPAT. The test compound's maximum inhibitory effect is represented as the Imax, while its potency is defined by the IC50.

Ki (human 5-HT1A receptors; displacement of [3H] 8-OHDPAT, CHO cells stably transfected with human 5-HT1A receptors, read-out: 5-HT1A Receptor Affinity KI) [nM] | Ki (serotonin transporter; displacement of 3H-paroxetine from male rat frontal cortical membranes, read-out: 5-HT Transporter Affinity KI) [nM] | SMILES | Ki (human 5-HT1A receptors) [nM] | Ki (serotonin transporter) [nM] | melting point | 5-HT1A Function Imax (maximum inhibitory effect) [1] [%] | IC50 [1] [nM]
– | – | Fc1ccc2[nH]cc(C3=CCN(CC4COc5ccc6nccnc6c5O4)CC3)c2c1 (stereo not drawn) [Example 1, 2-{[4-(5-Fluoro-1H-indol-3-yl)-3,6-dihydro-1(2H)-pyridinyl]methyl}-2,3-dihydro[1,4]dioxino[2,3-f]quinoxaline] | 17.7 | 0.5 | > 200 °C (dec.) | 100 | 271
– | – | C1=C(c2c[nH]c3ccccc23)CCN(CC2COc3ccc4nccnc4c3O2)C1 (stereo not drawn) [Example 2, 2-{[4-(1H-Indol-3-yl)-3,6-dihydro-1(2H)-pyridinyl]methyl}-2,3-dihydro[1,4]dioxino[2,3-f]quinoxaline] | 30 | 2.86 | > 220 °C (dec.) | 100 | 203
– | – | Cc1nc2ccc3c(c2nc1C)O[C@@H](CN1CC=C(c2c[nH]c4ccccc24)CC1)CO3 [Example 3] | 15.3 | 1.19 | 153 to 155 °C | 100 | 332
– | – | Cc1nc2ccc3c(c2nc1C)OC(CN1CC=C(c2c[nH]c4ccc(F)cc24)CC1)CO3 (stereo not drawn) [Example 4, 2-{[4-(5-Fluoro-1H-indol-3-yl)-3,6-dihydro-1(2H)-pyridinyl]methyl}-8,9-dimethyl-2,3-dihydro[1,4]dioxino[2,3-f]quinoxaline] | 25.5 | 1.57 | 138 to 141 °C | 100 | 389
– | – | CCc1nc2ccc3c(c2nc1CC)OC(CN1CC=C(c2c[nH]c4ccccc24)CC1)CO3 (stereo not drawn) [Example 5, 8,9-Diethyl-2-{[4-(1H-indol-3-yl)-3,6-dihydro-1(2H)-pyridinyl]methyl}-2,3-dihydro[1,4]dioxino[2,3-f]quinoxaline] | 99.2 | 9.5 | > 120 °C (dec.) | 98 | 1860
264 | 14 | CCc1nc2ccc3c(c2nc1CC)OC(CN1CC=C(c2c[nH]c4ccc(F)cc24)CC1)CO3 (stereo not drawn) [Example 6, 8,9-Diethyl-2-{[4-(5-fluoro-1H-indol-3-yl)-3,6-dihydro-1(2H)-pyridinyl]methyl}-2,3-dihydro[1,4]dioxino[2,3-f]quinoxaline] | – | – | > 120 °C (dec.) | 100 | 2240
